Results reported in patent publication US20030217389A1, “Novel peptides and methods of use” (priority 2002, published 2003).

Key:
[1] = system: liquid tomato cell culture; assay: Alkalinization of a liquid tomato cell culture; type: cell-based
tomato apical meristems = assay: Growth of excised tomato apical meristems in liquid culture; type: cell-based, Lycopersicon esculentum; settings: for growth of isolated tomato apical meristems: 100 nM peptide in liquid media, evaluated on the 16th day, compared with control peptide
Protocol: Tomato plants (Lycopersicon esculentum cv. Castlemart) were grown in a growth chamber with 17 hours of light (300 μmol m^−2s^−1) per day at 28° C. and seven hour nights at 18° C. Apical meristems were excised from shoot tips of two week old tomato plants. Shoot tips (1-2 cm long) were surface sterilized using 70% ethanol solution for 20-30 seconds, followed by a 20 minute incubation in a 1.5% (v/v) commercial bleach solution. Shoot tips were washed once in sterilized water after the ethanol treatment, and four times after bleaching. Apical meristems (including meristematic tissue, dome, with a leaf primordium) were carefully isolated under a stereoscope.
Isolated meristems were immediately inoculated into a liquid media (MS salts and vitamin mixture powder (Life Technologies) and 20 g/L of sucrose) containing either tomato RALF (100 nM) (SEQ ID NO: 4), or a control peptide (100 nM) that was not capable of stimulating meristem growth. Four meristems were inoculated in a 125 mL Erlenmeyer flask containing 10 mL of media, and flasks were gently shaken at 60 rpm. Sixteen meristems were tested for each treatment in four separate flasks. The liquid media was replaced with fresh media on the 5th, 12th and 14th days of the experiment. The experiment was evaluated and terminated on the 16th day.

Tobacco suspension cells = assay: Plant cell culture alkalinization assay; type: cell-based
Protocol: Plant Cell Culture Alkalinization Assay: Tobacco suspension cells were maintained in MS media. The media was adjusted to pH 5.6 with KOH. Three ml aliquots of one week old cultures were transferred into 35 ml of media in 125 ml flasks and placed on an orbital shaker at 160 rpm in the dark for growth. Cells were used for assay 3-5 days after transfer (cell density was approximately 0.5 to 1.5×10^6 cells/ml). One ml of cells was aliquoted into each well of 24-well cell culture cluster plates (Costar, number 3527, Corning Incorporated, Corning, N.Y.) and allowed to equilibrate on an orbital shaker at 160 rpm for 1 hr. Aliquots (1 to 10 μl) of fractions to be tested were added to the cells and the increasing pH change of the medium (medium alkalinization) was detected with time using an Orion Model EA940 pH meter with an Orion semi-micro pH electrode (Catalog number 8103BN, Orion, Beverly, Mass.).

Sequence	alkalinization of a liquid tomato cell culture [1]	growth of isolated tomato apical meristems (tomato apical meristems)	growth of isolated tomato apical meristems (tomato apical meristems; listed as tomato RALF (SEQ ID NO: 4))	rate of meristem tissue growth in the presence versus the absence of the polypeptide (tomato apical meristems; experiments of Example 3)	alkalinization of the medium of the liquid plant cell culture (pH change) (Tobacco suspension cells)
ATKKYISYGALQKNSVPCSRRGASYYNCKPGAQANPYTRGCSAITRCRS (listed as Lycopersicon esculentum) [tomato RALF polypeptide (SEQ ID NO: 4), chemically synthesized tomato RALF polypeptide]	induce alkalinization	stimulates the growth	stimulated growth	at least twice as fast	
ATKKYISYGALQKNSVPCSRRGASYYNCKPGAQANPYSRGCSAITRCRS (listed as Nicotiana tabacum) [tobacco RALF polypeptide, approximately 5 kDa polypeptide isolated from tobacco leaves]					rapidly induced alkalinization
